Measured values from PMC12022103 (Scientific Reports, 2025).
≈ marks a conversion by molar mass, not a printed value. Non-standard residues stand in square brackets, D forms with d. Residues, ends and D or L forms follow the SMILES beside them. No end group written: not given here. AEEA = NCCOCCOCC(=O)O

Assays:
E. coli ATCC 25922 [1] = test: Minimum inhibitory concentration (MIC), broth dilution; format: cell-based, Escherichia coli; details: for MIC, E. coli: E. coli ATCC 25922, two-fold dilution in MH II broth, 5 × 10^5 CFU/mL, 18–24 h, 37 °C, OD600, triplicate, highest number reported, detection limit <0.5 and >128 µM
Protocol: (§1) The panel of bacterial reference strains used in this work for assessment of synthetic peptide activity originated from the American Type Culture Collection (ATCC) and was obtained from the Diagnostic section at the Department of Microbiology, Oslo University Hospital. The strains used were as follows: E. coli ATCC 25922, K. pneumoniae ATCC 13883, A. baumannii ATCC 17978, S. aureus ATCC 29213, and E. faecalis ATCC 29212.
(§2) Bacterial strains were plated on cation-adjusted Mueller-Hinton (MH II) agar plates and incubated at 37 °C overnight. The day after single colonies were picked and resuspended in sterile-filtered saline (0.9%). The OD of each bacterial suspension was adjusted to McFarland standard 0.5 using a spectrophotometer (UV-1800, Shimadzu), and the suspension further diluted 1:100 in MH II broth, corresponding to 10^6 colony forming units (CFU) per mL. The inoculum suspension was used for MIC, MBC, time-kill and protease stability assessments as described below. To ensure correct inoculum sizes, 10 µL of the bacterial suspensions were diluted 2000-fold in sterile-filtered saline (0.9%) and 100 µL plated onto MH II agar plates. After overnight incubation at 37 °C, colonies were counted. If found to be outside the acceptable number (20–80 colonies per plate corresponding to ∼10^6 CFU/mL), results from further analyses were discarded.
(§3) The peptides were serially diluted (two-fold) directly in 96-well plates (Greiner, MICROPLATE, 96 WELL, PP, U-BOTTOM, NATURAL, 650261) containing MH II broth, corresponding to concentrations in the range 256–0.5 µM. An equal volume of bacterial suspension was added to each well, resulting in a final inoculum of 5 × 10^5 CFU/mL and final peptide concentrations of 128–0.25 µM. The 96-well plates were incubated for 18–24 h at 37 °C, after which the OD of each well was measured at 600 nm in a plate reader (Victor Nivo, Perkin-Elmer). The minimum inhibitory concentration (MIC) was estimated as the lowest concentration of peptide that produced OD600 measurements similar to the control wells containing no bacteria. The experiments were performed in triplicate. Two-fold variations in MIC values were often observed between replicates.

E. coli = test: Cell morphology by phase contrast microscopy; format: cell-based, Escherichia coli; details: 10× MIC, 5 min exposure, preliminary
Protocol: To explore the potential correlation between general membrane destabilization and our FoR data, we conducted a brief preliminary examination of E. coli cell morphology following a pulsed exposure to our top four peptide candidates at 10× MIC. Cells were imaged by using phase contrast microscopy after 5 min of exposure. […] However, additional research using complementary techniques are necessary to conclusively characterize their killing mechanism.

E. coli ATCC 25922 [2] = test: Frequency of resistance determination (p0 method); format: cell-based, Escherichia coli; details: E. coli ATCC 25922, 40 cultures, 4 × MIC, 24–48 h, colistin as reference, triplicate
Source text: The method was based on the Fluctuation assay (p0 method; Luria and Delbrück) for determination of mutation rate[33],[34], and optimized for selection of mutants in liquid medium. Colistin sulfate (Thermo Scientific, 15575146) served as control in experimentation. Initially, the MIC of colistin and peptides was verified through broth dilution in 96-well plates (as detailed above). In order to account for potential phenotypic heterogeneity among colonies derived from the same frozen stock, multiple colonies of E. coli ATCC 25922 were picked and inoculated in 2 mL MHII broth overnight at 37°C with continuous shaking. The following day, aliquots of colistin and peptide solutions were prepared in MHII broth at working concentrations 20 times the MIC. […] The plates were incubated at 37 °C in a humidified box, and OD was measured at 600 nm using a microplate reader (Victor Nivo, Perkin-Elmer) after 0, 24 and 48 h of incubation. […]
To calculate the viable bacterial counts, the overnight culture was serially diluted 10-fold in MHII, after which 5 µl of the 10^− 3 – 10^− 9 dilutions were spotted onto MHII agar plates and incubated overnight at 37 °C. CFUs were counted the following day to determine CFU/mL of the overnight culture. […] The mutation rate, or frequency of resistance, was calculated using the following formula: […]

E. faecalis ATCC 29212 [3] = test: Minimum inhibitory concentration (MIC), broth dilution; format: cell-based; details: for MIC, E. faecalis: E. faecalis ATCC 29212, MH II broth, 5 × 10^5 CFU/mL, 18–24 h, 37 °C, OD600, triplicate, highest number reported, detection limit <0.5 and >128 µM
Protocol: as §1, §2, §3

S. aureus ATCC 29213 [4] = test: as above; format: cell-based; details: for MIC, S. aureus: S. aureus ATCC 29213, MH II broth, 5 × 10^5 CFU/mL, 18–24 h, 37 °C, OD600, triplicate, highest number reported, detection limit <0.5 and >128 µM
Protocol: as §1, §2, §3

K. pneumoniae ATCC 13883 [5] = test: as above; format: cell-based; details: for MIC, K. pneumoniae: K. pneumoniae ATCC 13883, MH II broth, 5 × 10^5 CFU/mL, 18–24 h, 37 °C, OD600, triplicate, highest number reported, detection limit <0.5 and >128 µM
Protocol: as §1, §2, §3

P. aeruginosa [6] = test: Minimum bactericidal concentration (MBC); format: cell-based; details: 5 µL from MIC wells plated on MH II agar, 37 °C overnight, no visible colonies; triplicate, highest number reported
E. coli ATCC 25922 [7] = test: Minimum bactericidal concentration (MBC); format: cell-based, Escherichia coli; details: 5 µL from MIC wells plated on MH II agar, 37 °C overnight, no visible colonies, triplicate, highest number reported, detection limit <0.5 and >128 µM
Protocol: as §1, §2
(§4) In order to assess the minimum bactericidal concentration (MBC) of peptides, 5 µL from each well of the 96-well plate used for MIC analysis was plated onto MH II agar and incubated at 37 °C overnight. […] The experiments were performed in triplicate. Two-fold variations in MIC values were often observed between replicates.

E. faecalis ATCC 29212 [8] = test: Minimum bactericidal concentration (MBC); format: cell-based; details: 5 µL from MIC wells plated on MH II agar, 37 °C overnight, no visible colonies, triplicate, highest number reported
Protocol: as §1, §2, §4

S. aureus ATCC 29213 [9] = test: Minimum bactericidal concentration (MBC); format: cell-based; details: 5 µL from MIC wells plated on MH II agar, 37 °C overnight, no visible colonies, triplicate, highest number reported
Protocol: as §1, §2, §4

A. baumannii ATCC 17978 [10] = test: Minimum bactericidal concentration (MBC); format: cell-based; details: 5 µL from MIC wells plated on MH II agar, 37 °C overnight, no visible colonies, triplicate, highest number reported
Protocol: as §1, §2, §4

K. pneumoniae ATCC 13883 [11] = test: Minimum bactericidal concentration (MBC); format: cell-based; details: 5 µL from MIC wells plated on MH II agar, 37 °C overnight, no visible colonies, triplicate, highest number reported
Protocol: as §1, §2, §4

A. baumannii ATCC 17978 [12] = test: Minimum inhibitory concentration (MIC), broth dilution; format: cell-based; details: MH II broth, 5 × 10^5 CFU/mL, 18–24 h, 37 °C, OD600, triplicate, highest number reported, detection limit <0.5 and >128 µM
Protocol: as §1, §2, §3

P. aeruginosa [13] = test: as above; format: cell-based; details: MH II broth, 5 × 10^5 CFU/mL, 18–24 h, 37 °C, OD600; triplicate, highest number reported; detection limit <0.5 and >128 µM
Solubility of peptides = format: physicochemical; details: solvent as stated in the value
E. coli ATCC 25922 [14] = test: Time-kill experiments; format: cell-based, Escherichia coli; details: E. coli ATCC 25922, at the MBC; detection limit 100 CFU/mL; triplicate
Protocol: as §2
Four Eppendorf tubes were set up containing 0.5 mL of E. coli inoculum, prepared as described above. To the tubes were added peptides corresponding to final concentrations of ½×MIC, MIC and 2×MIC (see Fig. 3). One tube served as growth control (no added peptide). Then, 50 µL of culture were sampled from the tubes at timepoints 0, 0.25, 0.5, 2, 5 and 24 h. […] The day after, CFU/mL was calculated based on colony counts and dilution factor. […]

Molecule | Fold improvement (lowering) of MIC compared to parent 1a-N10, E. coli (E. coli ATCC 25922 [1]; D-form versus all-L parent) [fold] | Membrane morphology of cells (in words) (E. coli) | Frequency of resistance (FoR) (in words) (E. coli ATCC 25922 [2]) | Fold lowering of MIC compared to parent 1a-N10, E. faecalis (E. faecalis ATCC 29212 [3]; D-form versus all-L parent) [fold] | Fold lowering of MIC compared to parent 1a-N10, S. aureus (S. aureus ATCC 29213 [4]; D-form versus all-L parent) [fold] | Fold improvement (lowering) of MIC compared to parent 1a-N10, K. pneumoniae (K. pneumoniae ATCC 13883 [5]; D-form versus all-L parent) [fold] | MIC, E. coli (E. coli ATCC 25922 [1]) [µM] | MBC, P. aeruginosa (P. aeruginosa [6]) [µM] | MBC, E. coli (E. coli ATCC 25922 [7]) [µM] | MBC, E. faecalis (E. faecalis ATCC 29212 [8]) [µM] | MBC, S. aureus (S. aureus ATCC 29213 [9]) [µM] | MBC, A. baumannii (A. baumannii ATCC 17978 [10]) [µM] | MBC, K. pneumoniae (K. pneumoniae ATCC 13883 [11]) [µM] | MIC, E. faecalis (E. faecalis ATCC 29212 [3]) [µM] | MIC, S. aureus (S. aureus ATCC 29213 [4]) [µM] | MIC, A. baumannii (A. baumannii ATCC 17978 [12]) [µM] | MIC, K. pneumoniae (K. pneumoniae ATCC 13883 [5]) [µM] | MIC, P. aeruginosa (P. aeruginosa [13]) [µM] | Solubility (in words) (Solubility of peptides) | Time after which CFU/ml was below the detection limit (E. coli ATCC 25922 [14]) [h]
CC[C@@H](C)[C@@H](NC(=O)[C@@H](CC(C)C)NC(=O)[C@@H](CCC(N)=O)NC(=O)[C@@H](CC(C)C)NC(=O)[C@H](NC(=O)[C@@H](C)NC(=O)[C@@H](CCCCN)NC(=O)[C@@H](CCCCN)NC(=O)[C@@H](CCCCN)NC(=O)[C@@H](CCCCN)NC(=O)[C@@H](CCCCN)NC(=O)[C@H](N)C(C)C)C(C)C)C(=O)N[C@H](CC(C)C)C(=O)N[C@H](CCCCN)C(=O)N[C@H](Cc1ccccc1)C(N)=O [D-1a-N10] (H-[dV][dK][dK][dK][dK][dK][dA][dV][dL][dQ][dL][dI][dL][dK][dF]-NH2; N-terminus assumed) | 2 | indications of changes in membrane morphology | eliminated mutagenicity | 4 | 8 | 2 | – | – | – | – | – | – | – | – | – | – | – | – | – | –
CC[C@H](C)[C@H](NC(=O)[C@H](CC(C)C)NC(=O)[C@H](CCC(N)=O)NC(=O)[C@H](CC(C)C)NC(=O)[C@@H](NC(=O)[C@H](C)NC(=O)[C@H](CCCCN)NC(=O)[C@H](CCCCN)NC(=O)[C@H](CCCCN)NC(=O)COCCOCCNC(=O)[C@H](CCCCN)NC(=O)[C@H](CCCCN)NC(=O)[C@@H](N)C(C)C)C(C)C)C(=O)N[C@@H](CC(C)C)C(=O)N[C@@H](CCCCN)C(=O)N[C@@H](Cc1ccccc1)C(=O)N[C@@H](CC(C)C)C(N)=O [3d-N10] (H-VKK[AEEA]KKKAVLQLILKFL-NH2) | – | – | – | – | – | – | 16 (≈ 32.7 µg/mL) | 64 (≈ 131 µg/mL) | 16 (≈ 32.7 µg/mL) | 32 (≈ 65.3 µg/mL) | 32 (≈ 65.3 µg/mL) | 16 (≈ 32.7 µg/mL) | 32 (≈ 65.3 µg/mL) | 32 (≈ 65.3 µg/mL) | 32 (≈ 65.3 µg/mL) | 16 (≈ 32.7 µg/mL) | 32 (≈ 65.3 µg/mL) | 64 (≈ 131 µg/mL) | – | –
VKKKKKAVLQLILKF-NH2 [1a-N10] | – | no explicit membrane defects | low resistance frequencies | – | – | – | – | – | – | – | – | – | – | – | – | – | – | – | soluble in PBS alone | 0.5
KKKKIAVLQLILLFL-NH2 [2b-N12] | – | – | – | – | – | – | > 128 | > 128 | > 128 | > 128 | > 128 | > 128 | > 128 | > 128 | > 128 | > 128 | > 128 | > 128 | – | –
VRRRRRAVLQLILRFL-NH2 [3a-N10] | – | – | – | – | – | – | 32 | 64 | 32 | 16 | 32 | 16 | 32 | 16 | 32 | 16 | 32 | 64 | – | –
KKKKFVLKLILKLL-NH2 [2e-N12] | – | – | – | – | – | – | > 128 | > 128 | > 128 | > 128 | > 128 | > 128 | > 128 | > 128 | > 128 | > 128 | > 128 | > 128 | – | –
